“And” between values parts separate entries of the source, which are not always exact repeats. Equal values may be shown once.
Columns and labels:
[1] = test system: staphylococcal mastitis infections; test: Bovine mastitis: intramammary infusion in lactating cows, clinical and bacteriological response at 4 and 7 days after treatment; type: in vivo, staphylococci
Description: Twenty one staphylococcal mastitis infections were treated as follows:
Ten infections treated with 3 x 12 hr infusions of a combination of 300 mg Rifampicin and 200 mg Cloxacillin.
Eleven infections treated with 3 x 12 hr infusions of 200 mg Cloxacillin.
The treatment was carried out by intramammary infusion in lactating cows, and the clinical and bacteriological response recorded at 4 and 7 days after treatment.

S. aureus = test: Experimental mouse mastitis: intramammary antibiotic therapy 4 h after S. aureus inoculation, viable bacterial count per gland 18 h later; type: in vivo; settings: for 22 h bacterial counts (log10 cfu/gland) (18 h after treatment), x̄: group mean of five mice; for 22 h bacterial counts (log10 cfu/gland) (18 h after treatment): individual mice, intramammary, 4 h after infection
Description: Lactating mice of the Compton white strain were used 4-7 days after parturition. The mice were anaesthetised with ether and c.10^6 cfu S. aureus were inoculated via the teat into the fourth mammary gland on each side (R4 and L4) by the method described by Anderson [Zentralblatt fur Bakteriologie, Parasitenkunde, Infektionskrankheiten und Hygiene (Abteilung 1) Suppl. 5 783-790].
4 Hours later, the mice were divided into four groups and each group received inoculations into R4 and L4 of either cloxacillin, rifampicin, cloxacillin and rifampicin, or saline. After a further 18 hours, the mice were killed. From each mouse, L4 was removed and homogenised in a Griffith's tube with 5 ml sterile saline, and a total viable bacterial count was determined using ox blood agar plates pretreated with S-lactamase.
The log10 bacterial viable counts per gland found after antibiotic (or saline) therapy in each experiment were examined by analysis of variance. Differences between each pair of treatments were then compared for significance in Student's 't' tests, using the value of the.mean square for error obtained in the analysis of variance. Antibiotic residues. Each gland homogenate was also assayed for antibiotic content using an agar well diffusion method with penassay seed agar (Antibiotic medium 1, Difco Labs., Detroit) and Sarcina lutea as the test organism.
Similar treatment to that described above was carried out on mice, in which cloxacillin was replaced by flucloxacillin.
Antibiotics inoculated into mammary glands 4 h after infection at a dose of 1 mg cloxacillin or […] rifampici per gland, or both.

bovine mastitis = settings: recent reports (Poutrel 1978; Postle et al. 1979); cited from earlier work
[2] = lactating cows, 3 x 12 hr infusions of 300 mg Rifampicin and 200 mg Cloxacillin, or of 200 mg Cloxacillin

Cc1onc(-c2ccccc2Cl)c1C(=O)N[C@@H]1C(=O)N2[C@@H]1SC(C)(C)[C@@H]2C(=O)O [Cloxacillin, cloxacillin]
quarters with raised cell counts ([1]; four days after treatment, eight out of eleven raised before): five
quarters yielding staphylococci ([1]; four days after treatment, eleven infections treated): five
Proportion of quarters cured four days after treatment [1, 2]: 6 out of 11
Proportion of quarters cured seven days after treatment [1, 2]: 5 out of 11
quarters yielding staphylococci ([1]; seven days after treatment, combination ten quarters, cloxacillin alone eleven): six
mean viable bacterial counts per gland, comparison between groups (S. aureus; M60 S. aureus, cloxacillin/rifampicin experiment, 1 mg cloxacillin or rifampici per gland, or both, 18 h after therapy, P<0.01): reduced bacterial counts to a significantly greater extend than rifampicin treatment

Cc1onc(-c2c(F)cccc2Cl)c1C(=O)N[C@@H]1C(=O)N2[C@@H]1SC(C)(C)[C@@H]2C(=O)O [Fluclox, flucloxacillin]
22 h bacterial counts (log10 cfu/gland) (18 h after treatment), x̄ (S. aureus; Fluclox 1 mg per gland): 4.403 log10 cfu/gland
22 h bacterial counts (log10 cfu/gland) (18 h after treatment) (S. aureus; Fluclox 1 mg per gland): 4.243 log10 cfu/gland and 4.796 log10 cfu/gland and 4.158 log10 cfu/gland and 4.340 log10 cfu/gland and 4.477 log10 cfu/gland

CO[C@H]1/C=C/O[C@@]2(C)Oc3c(C)c(O)c4c(O)c(c(/C=N/N5CCN(C)CC5)c(O)c4c3C2=O)NC(=O)/C(C)=C\C=C\[C@H](C)[C@H](O)[C@@H](C)[C@@H](O)[C@@H](C)[C@H](OC(C)=O)[C@@H]1C [Rifampicin, rifampicin]
22 h bacterial counts (log10 cfu/gland) (18 h after treatment), x̄ (S. aureus; Rifampicin 25 µg per gland): 4.837 log10 cfu/gland
22 h bacterial counts (log10 cfu/gland) (18 h after treatment) (S. aureus; Rifampicin 25 µg per gland): 5.694 log10 cfu/gland and 4.581 log10 cfu/gland and 5.536 log10 cfu/gland and 4.258 log10 cfu/gland and 4.118 log10 cfu/gland

CO[C@H]1/C=C/O[C@@]2(C)Oc3c(C)c([O-])c4c(O)c(cc(O)c4c3C2=O)NC(=O)/C(C)=C\C=C\[C@H](C)[C@H](O)[C@@H](C)[C@@H](O)[C@@H](C)[C@H](OC(C)=O)[C@@H]1C.[Na+] [rifamycin-S.V.]
effectiveness of therapy in bovine mastitis (bovine mastitis): less effective than penicillin based preparations

— patent EP0058015A2, “Treatment of infections” (BEECHAM GROUP PLC, priority 1981, dated 1982)
